Publication PMC9402538, “Rational design of a sensitivity-enhanced tracer for discovering efficient APC–Asef inhibitors” (Nature Communications, 2022)
Where a SMILES comes first, the peptide text is derived from it. The star is where a group is joined. Bz = O=C(c1ccccc1)*

Target: T1, APC (303–739) (Homo sapiens, UniProt P25054)
T1 sequence (P25054 303-739): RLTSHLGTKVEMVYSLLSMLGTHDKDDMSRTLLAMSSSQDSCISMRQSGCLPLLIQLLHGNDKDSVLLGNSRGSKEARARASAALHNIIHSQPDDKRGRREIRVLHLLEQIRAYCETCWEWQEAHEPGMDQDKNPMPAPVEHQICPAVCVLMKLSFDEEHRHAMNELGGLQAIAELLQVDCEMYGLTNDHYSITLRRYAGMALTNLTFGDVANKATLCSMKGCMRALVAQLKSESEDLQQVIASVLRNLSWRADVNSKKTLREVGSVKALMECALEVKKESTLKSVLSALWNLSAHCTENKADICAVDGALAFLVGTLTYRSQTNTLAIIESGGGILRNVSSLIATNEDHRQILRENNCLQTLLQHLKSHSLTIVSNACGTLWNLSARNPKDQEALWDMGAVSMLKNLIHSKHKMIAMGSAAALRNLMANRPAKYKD
Experiment: FP competitive assay using tracer 7
Assay type: binding
Conditions: for IC50: Table 3 source data
Summary of the method: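 Peptide dilutions were first incubated 1 h at room temperature with APC (303–739) in HEPES pH 7.5 buffer containing 300 mM NaCl, EDTA and DTT. Added FITC tracer 7 (400 nM stock) displaced over a further 1.5 h before polarization reading. IC50 values came from nonlinear regression fits of triplicate data.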

Compound: CC(C)C[C@H](NC(=O)[C@H](CO)NC(=O)[C@H](CCC(=O)O)NC(=O)CNC(=O)[C@H](C)NC(=O)c1ccccc1)C(=O)N[C@@H](Cc1ccc(O)cc1)C(=O)N[C@@H](CCC(=O)O)C(N)=O [MAI-511] (Bz-AGESLYE-NH2)
- inhibition at 0.0002 µM (Conc. 0.0002 μM, individual repeats, Fig3b): 1.5%
- inhibition at 0.0005 µM (Conc. 0.0005 μM, individual repeats, Fig3b): 1.2%
- inhibition at 0.001 µM (Conc. 0.001 μM, individual repeats, Fig3b): 1.9%
- inhibition at 0.002 µM (Conc. 0.002 μM, individual repeats, Fig3b): 1.5%
- inhibition at 0.0024 µM (Conc. 0.0024 μM, individual repeats, Fig3b): 1.1%
- inhibition at 0.0039 µM (Conc. 0.0039 μM, individual repeats, Fig3b): 2.5%
- inhibition at 0.0049 µM (Conc. 0.0049 μM, individual repeats, Fig3b): 1.1%
- inhibition at 0.006 µM (Conc. 0.006 μM, individual repeats, Fig3b): 4.7%
- inhibition at 0.0078 µM (Conc. 0.0078 μM, individual repeats, Fig3b): 5.3%
- inhibition at 0.0098 µM (Conc. 0.0098 μM, individual repeats, Fig3b): 6.1%
- inhibition at 0.012 µM (Conc. 0.012 μM, individual repeats, Fig3b): 7.9%
- inhibition at 0.0156 µM (Conc. 0.0156 μM, individual repeats, Fig3b): 8.5%
- inhibition at 0.0195 µM (Conc. 0.0195 μM, individual repeats, Fig3b): 11.3%
- inhibition at 0.024 µM (Conc. 0.024 μM, individual repeats, Fig3b): 16.8%
- inhibition at 0.0313 µM (Conc. 0.0313 μM, individual repeats, Fig3b): 22.7%
- inhibition at 0.0391 µM (Conc. 0.0391 μM, individual repeats, Fig3b): 22.5%
- inhibition at 0.049 µM (Conc. 0.049 μM, individual repeats, Fig3b): 31.3%
- inhibition at 0.0625 µM (Conc. 0.0625 μM, individual repeats, Fig3b): 39%
- inhibition at 0.0781 µM (Conc. 0.0781 μM, individual repeats, Fig3b): 39.5%
- inhibition at 0.098 µM (Conc. 0.098 μM, individual repeats, Fig3b): 49%
- inhibition at 0.125 µM (Conc. 0.125 μM, individual repeats, Fig3b): 56.2%
- inhibition at 0.1563 µM (Conc. 0.1563 μM, individual repeats, Fig3b): 58.3%
- inhibition at 0.195 µM (Conc. 0.195 μM, individual repeats, Fig3b): 67.3%
- inhibition at 0.25 µM (Conc. 0.25 μM, individual repeats, Fig3b): 72.5%
- inhibition at 0.3125 µM (Conc. 0.3125 μM, individual repeats, Fig3b): 72.1%
- inhibition at 0.391 µM (Conc. 0.391 μM, individual repeats, Fig3b): 80.1%
- inhibition at 0.5 µM (Conc. 0.5 μM, individual repeats, Fig3b): 83.2%
- inhibition at 0.625 µM (Conc. 0.625 μM, individual repeats, Fig3b): 82.5%
- inhibition at 0.781 µM (Conc. 0.781 μM, individual repeats, Fig3b): 86.3%
- inhibition at 1 µM (Conc. 1 μM, individual repeats, Fig3b): 90.6%
- inhibition at 1.25 µM (Conc. 1.25 μM, individual repeats, Fig3b): 89.5%
- inhibition at 1.563 µM (Conc. 1.563 μM, individual repeats, Fig3b): 91.5%
- inhibition at 2 µM (Conc. 2 μM, individual repeats, Fig3b): 95.4%
- inhibition at 2.5 µM (Conc. 2.5 μM, individual repeats, Fig3b): 93.6%
- inhibition at 3.125 µM (Conc. 3.125 μM, individual repeats, Fig3b): 93.5%
- inhibition at 5 µM (Conc. 5 μM, individual repeats, Fig3b): 95.7%
- inhibition at 6.25 µM (Conc. 6.25 μM, individual repeats, Fig3b): 94.1%
- inhibition at 10 µM (Conc. 10 μM, individual repeats, Fig3b): 96.6%
- inhibition at 12.5 µM (Conc. 12.5 μM, individual repeats, Fig3b): 95%
- inhibition at 20 µM (Conc. 20 μM, individual repeats, Fig3b): 97.1%
- inhibition at 25 µM (Conc. 25 μM, individual repeats, Fig3b): 95.6%
- inhibition at 50 µM (Conc. 50 μM, individual repeats, Fig3b): 94.9%
- IC50 (IC50(μM) Repeat 1, Repeat 1): 0.0848 µM
- IC50 (IC50(μM) Repeat 2, Repeat 2): 0.102 µM
- IC50 (IC50(μM) Repeat 3, Repeat 3): 0.108 µM
- IC50 (IC50(μM) mean, mean of 3 repeats): 0.0984 µM
- mean (FP signal, FigS5) (Repeat 1, Conc. 0.0024 μM): 300.7
- mean (FP signal, FigS5) (Repeat 1, Conc. 0.0049 μM): 300.5
- mean (FP signal, FigS5) (Repeat 1, Conc. 0.0098 μM): 288
- mean (FP signal, FigS5) (Repeat 1, Conc. 0.0195 μM): 274.7
- mean (FP signal, FigS5) (Repeat 1, Conc. 0.0391 μM): 246.3
- mean (FP signal, FigS5) (Repeat 1, Conc. 0.0781 μM): 203.3
- mean (FP signal, FigS5) (Repeat 1, Conc. 0.1563 μM): 155.7
- mean (FP signal, FigS5) (Repeat 1, Conc. 0.3125 μM): 120.7
- mean (FP signal, FigS5) (Repeat 1, Conc. 0.625 μM): 94.3
- mean (FP signal, FigS5) (Repeat 1, Conc. 1.25 μM): 76.7
- mean (FP signal, FigS5) (Repeat 1, Conc. 2.5 μM): 66.3
- mean (FP signal, FigS5) (Repeat 1, Conc. 5 μM): 61
- mean (FP signal, FigS5) (Repeat 1, Conc. 10 μM): 58.7
- mean (FP signal, FigS5) (Repeat 1, Conc. 20 μM): 57.3
- mean (FP signal, FigS5) (Repeat 2, Conc. 0.0002 μM): 300.7
- mean (FP signal, FigS5) (Repeat 2, Conc. 0.0005 μM): 301.3
- mean (FP signal, FigS5) (Repeat 2, Conc. 0.001 μM): 299.7
- mean (FP signal, FigS5) (Repeat 2, Conc. 0.002 μM): 300.7
- mean (FP signal, FigS5) (Repeat 2, Conc. 0.0039 μM): 298
- mean (FP signal, FigS5) (Repeat 2, Conc. 0.0078 μM): 291
- mean (FP signal, FigS5) (Repeat 2, Conc. 0.0156 μM): 283
- mean (FP signal, FigS5) (Repeat 2, Conc. 0.0313 μM): 247.3
- mean (FP signal, FigS5) (Repeat 2, Conc. 0.0625 μM): 206.3
- mean (FP signal, FigS5) (Repeat 2, Conc. 0.125 μM): 163
- mean (FP signal, FigS5) (Repeat 2, Conc. 0.25 μM): 122
- mean (FP signal, FigS5) (Repeat 2, Conc. 0.5 μM): 95.3
- mean (FP signal, FigS5) (Repeat 2, Conc. 1 μM): 76.7
- mean (FP signal, FigS5) (Repeat 2, Conc. 2 μM): 64.7
- mean (FP signal, FigS5) (Repeat 3, Conc. 0.006 μM): 301.3
- mean (FP signal, FigS5) (Repeat 3, Conc. 0.012 μM): 293
- mean (FP signal, FigS5) (Repeat 3, Conc. 0.024 μM): 270
- mean (FP signal, FigS5) (Repeat 3, Conc. 0.049 μM): 232.3
- mean (FP signal, FigS5) (Repeat 3, Conc. 0.098 μM): 186.3
- mean (FP signal, FigS5) (Repeat 3, Conc. 0.195 μM): 138.7
- mean (FP signal, FigS5) (Repeat 3, Conc. 0.391 μM): 105.3
- mean (FP signal, FigS5) (Repeat 3, Conc. 0.781 μM): 89.3
- mean (FP signal, FigS5) (Repeat 3, Conc. 1.563 μM): 75.7
- mean (FP signal, FigS5) (Repeat 3, Conc. 3.125 μM): 70.7
- mean (FP signal, FigS5) (Repeat 3, Conc. 6.25 μM): 69
- mean (FP signal, FigS5) (Repeat 3, Conc. 12.5 μM): 66.7
- mean (FP signal, FigS5) (Repeat 3, Conc. 25 μM): 65
- mean (FP signal, FigS5) (Repeat 3, Conc. 50 μM): 67
